From ChEMBL document CHEMBL5506037, “Synthesis of Heterocyclic Ring-Fused Bisnoralcohol Derivatives as Novel Small-Molecule Antiosteoporosis Agents” (J Med Chem, 2024) come the findings set out here.

In general, inhibition refers to the percentage by which the read-out fell short of the control.

The test system of data set [1] is BMMC. In words: Anti-osteoclastogenesis activity in M-CSF/RANKL-induced C57BL/6J mouse BMMC cells assessed as inhibition of osteoclast differentiation at 0.1 uM incubated for 7 days by TRAP staining based analysis relative to control. Format: functional. Particulars: 168 h, time 7 day.
Data set [2] concerns BMMC. Kind of data set: Anti-osteoclastogenesis activity in M-CSF/RANKL-induced C57BL/6J mouse BMMC cells assessed as inhibition of osteoclast differentiation at 1 uM incubated for 7 days by TRAP staining based analysis relative to control. Format: functional. To be noted: 168 h, time 7 day.
Data set [3] in a line: Cytotoxicity against M-CSF induced C57BL/6J mouse BMMC cells assessed as cell viability at 10 uM incubated for 48 hrs by CCK-8 assay relative to control. Format: toxicity, cell-based. Particulars: read-out: Activity.

Turning to `C[C@H](C(=O)O)[C@H]1CC[C@H]2[C@@H]3CC=C4C(C)(C)c5nnsc5C[C@]4(C)[C@H]3CC[C@]12C`, in the data set on BMMC [1], the inhibition at 0.1 µM is 45.8%. In addition, the inhibition at 1 µM in the data set on BMMC [2] is 86.8%. Moreover, the viability at 48 h, 10 µM in data set [3] is ≥ 100%.

With `C[C@H](C(=O)NC1CCCCC1)[C@H]1CC[C@H]2[C@@H]3CC=C4C(C)(C)c5nnsc5C[C@]4(C)[C@H]3CC[C@]12C`, the inhibition at 0.1 µM in the data set on BMMC [1] was determined as 54%. In the data set on BMMC [2], the inhibition at 1 µM was 100%. The viability at 48 h, 10 µM in data set [3] is ≥ 100%.

`C[C@H](C(=O)Nc1ccc(Br)cc1)[C@H]1CC[C@H]2[C@@H]3CC=C4C(C)(C)c5nnsc5C[C@]4(C)[C@H]3CC[C@]12C`: the inhibition at 0.1 µM in the data set on BMMC [1] is 0%. Further, the inhibition at 1 µM in the data set on BMMC [2] was found to be 65.1%. Further, the viability at 48 h, 10 µM in data set [3] is ≥ 100%.

With `CNC(=O)[C@@H](C)[C@H]1CC[C@H]2[C@@H]3CC=C4C(C)(C)c5nnsc5C[C@]4(C)[C@H]3CC[C@]12C`, the inhibition at 0.1 µM in the data set with BMMC [1] was found to be 49.3%. Besides, in the data set on BMMC [2], the inhibition at 1 µM is 100%. Moreover, in data set [3], the viability at 48 h, 10 µM was ≥ 100%.

With `C[C@H](C(=O)Nc1ccncc1)[C@H]1CC[C@H]2[C@@H]3CC=C4C(C)(C)c5nnsc5C[C@]4(C)[C@H]3CC[C@]12C`, the inhibition at 0.1 µM in the data set with BMMC [1] worked out at 30.2%. In the data set on BMMC [2], the inhibition at 1 µM is 85.5%. The viability at 48 h, 10 µM in data set [3] was ≥ 100%.

For the compound `C[C@H](C(=O)N1CCOCC1)[C@H]1CC[C@H]2[C@@H]3CC=C4C(C)(C)c5nnsc5C[C@]4(C)[C@H]3CC[C@]12C`, in the data set with BMMC [1], the inhibition at 0.1 µM worked out at 53.5%. Besides, in the data set with BMMC [2], the inhibition at 1 µM is 91.9%. The viability at 48 h, 10 µM in data set [3] was ≥ 100%.

Take `C=CCNC(=O)[C@@H](C)[C@H]1CC[C@H]2[C@@H]3CC=C4C(C)(C)c5nnsc5C[C@]4(C)[C@H]3CC[C@]12C`: the inhibition at 0.1 µM with BMMC [1] came to 61.1%. Besides, the inhibition at 1 µM in the data set on BMMC [2] was found to be 98.3%. In addition, the viability at 48 h, 10 µM in data set [3] was ≥ 100%.

For the compound `C[C@H](C(=O)Nc1ccc(F)cc1)[C@H]1CC[C@H]2[C@@H]3CC=C4C(C)(C)c5nnsc5C[C@]4(C)[C@H]3CC[C@]12C`, the inhibition at 0.1 µM in the data set with BMMC [1] is 47.5%. The inhibition at 1 µM in the data set with BMMC [2] was determined as 91.9%. Also, the viability at 48 h, 10 µM in data set [3] was ≥ 100%.

Take `C[C@H](C(=O)Nc1nccs1)[C@H]1CC[C@H]2[C@@H]3CC=C4C(C)(C)c5nnsc5C[C@]4(C)[C@H]3CC[C@]12C`: the inhibition at 0.1 µM in the data set on BMMC [1] is 19.2%. Moreover, in the data set with BMMC [2], the inhibition at 1 µM was 85.9%. Further, the viability at 48 h, 10 µM in data set [3] is ≥ 100%.

Consider `COc1ccc(NC(=O)[C@@H](C)[C@H]2CC[C@H]3[C@@H]4CC=C5C(C)(C)c6nnsc6C[C@]5(C)[C@H]4CC[C@]23C)cc1`, for which the inhibition at 0.1 µM with BMMC [1] was found to be 69.6%. Further, in the data set with BMMC [2], the inhibition at 1 µM stood at 100%. Also, the viability at 48 h, 10 µM in data set [3] is ≥ 100%.

In the case of `CCNC(=O)C[C@@H](C)[C@H]1CC[C@H]2[C@@H]3CC=C4C(C)(C)c5nnsc5C[C@]4(C)[C@H]3CC[C@]12C`, the inhibition at 0.1 µM with BMMC [1] was 21.9%. Besides, in the data set with BMMC [2], the inhibition at 1 µM was found to be 99.5%. For the same compound, the viability at 48 h, 10 µM in data set [3] was ≥ 100%.

As for `CCNC(=O)CCC[C@@H](C)[C@H]1CC[C@H]2[C@@H]3CC=C4C(C)(C)c5nnsc5C[C@]4(C)[C@H]3CC[C@]12C`, in the data set with BMMC [1], the inhibition at 0.1 µM worked out at 15.8%. Besides, the inhibition at 1 µM in the data set with BMMC [2] worked out at 100%. Also, in data set [3], the viability at 48 h, 10 µM is ≥ 100%.

Regarding `CCNC(=O)CC[C@@H](C)[C@H]1CC[C@H]2[C@@H]3CC=C4C(C)(C)c5nnsc5C[C@]4(C)[C@H]3CC[C@]12C`, in the data set with BMMC [1], the inhibition at 0.1 µM is 46.4%. In addition, the inhibition at 1 µM in the data set with BMMC [2] was determined as 100%. The viability at 48 h, 10 µM in data set [3] is ≥ 100%.

As to `CCCCNC(=O)[C@@H](C)[C@H]1CC[C@H]2[C@@H]3CC=C4C(C)(C)c5nnsc5C[C@]4(C)[C@H]3CC[C@]12C`, in the data set on BMMC [1], the inhibition at 0.1 µM was 76.3%. The inhibition at 1 µM in the data set with BMMC [2] came to 100%. Moreover, in data set [3], the viability at 48 h, 10 µM was ≥ 100%.
